Data as given in ChEMBL document CHEMBL6177960, “Rational design, optimization, and biological evaluation of novel pyrrolo-pyridone derivatives as potent and orally active Cbl-b inhibitors” (Eur J Med Chem, 2025).

Legend:
[1] = system: CT26; assay: Antitumor activity against mouse CT26 cells implanted in female BALB/C mouse model assessed as tumor growth inhibition at 50 mg/kg, po administered via gavage once daily and measured after 14 days relative to control; settings: 336 h, read-out: TGI
[2] = mouse, in vivo, iv, 1 mg/kg, 24 h
[3] = mouse, in vivo, po, 10 mg/kg, 24 h
[4] = in vivo; settings: male, CD-1(ICR), mouse, iv, 1 mg/kg
Description: Half-life in male CD-1(ICR) mouse at 1 mg/kg, iv measured after 1440 mins by LC-MS/MS analysis

[5] = in vivo; settings: male, CD-1(ICR), mouse, iv, 1 mg/kg; remark: listed apart in the source
Description: C0 in male CD-1(ICR) mouse at 1 mg/kg, iv measured after 1440 mins by LC-MS/MS analysis

[6] = in vivo; settings: male, CD-1(ICR), mouse, iv, 1 mg/kg; remark: listed apart in the source
Description: AUClast in male CD-1(ICR) mouse at 1 mg/kg, iv measured after 1440 mins by LC-MS/MS analysis

[7] = in vivo; settings: male, CD-1(ICR), mouse, iv, 1 mg/kg; remark: listed apart in the source
Description: AUCinfinity in male CD-1(ICR) mouse at 1 mg/kg, iv measured after 1440 mins by LC-MS/MS analysis

[8] = in vivo; settings: male, CD-1(ICR), mouse, iv, 1 mg/kg; remark: listed apart in the source
Description: MRTinfinity in male CD-1(ICR) mouse at 1 mg/kg, iv measured after 1440 mins by LC-MS/MS analysis

[9] = in vivo; settings: male, CD-1(ICR), mouse, iv, 1 mg/kg; remark: listed apart in the source
Description: Apparent volume of distribution in male CD-1(ICR) mouse at 1 mg/kg, iv measured after 1440 mins by LC-MS/MS analysis

[10] = in vivo; settings: male, CD-1(ICR), mouse, iv, 1 mg/kg; remark: listed apart in the source
Description: Volume of distribution at steady state in male CD-1(ICR) mouse at 1 mg/kg, iv measured after 1440 mins by LC-MS/MS analysis

[11] = in vivo; settings: male, CD-1(ICR), mouse, iv, 1 mg/kg; remark: listed apart in the source
Description: Clearance in male CD-1(ICR) mouse at 1 mg/kg, iv measured after 1440 mins by LC-MS/MS analysis

[12] = in vivo; settings: male, CD-1(ICR), mouse, po, 10 mg/kg
Description: Half-life in male CD-1(ICR) mouse at 10 mg/kg, po measured after 1440 mins by LC-MS/MS analysis

[13] = in vivo; settings: male, CD-1(ICR), mouse, po, 10 mg/kg; remark: listed apart in the source
[14] = in vivo; settings: male, CD-1(ICR), mouse, po, 10 mg/kg; remark: listed apart in the source
[15] = in vivo; settings: male, CD-1(ICR), mouse, po, 10 mg/kg; remark: listed apart in the source
Description: AUClast in male CD-1(ICR) mouse at 10 mg/kg, po measured after 1440 mins by LC-MS/MS analysis

[16] = in vivo; settings: male, CD-1(ICR), mouse, po, 10 mg/kg; remark: listed apart in the source
Description: AUCinfinity in male CD-1(ICR) mouse at 10 mg/kg, po measured after 1440 mins by LC-MS/MS analysis

[17] = in vivo; settings: male, CD-1(ICR), mouse, po, 10 mg/kg; remark: listed apart in the source
Description: MRTinfinity in male CD-1(ICR) mouse at 10 mg/kg, po measured after 1440 mins by LC-MS/MS analysis

[18] = in vivo; settings: male, CD-1(ICR), mouse, po, 10 mg/kg; remark: listed apart in the source
[19] = Toxicity in female BALB/C mouse model implanted with mouse CT26 cells assessed as effect on body weight at 30 mg/kg, po administered via gavage once daily and measured after 14 days; settings: in vivo, 336 h
[20] = Inhibition of immunosuppressive activity in PGE2-induced human T cells assessed as increase in IFNgamma production preincubated with PGE2 for 15 mins followed by compound administration for 60 mins and measured after 48 hrs of anti-human CD28 antibody by ELISA; settings: T-cell
[21] = Inhibition of immunosuppressive activity in PGE2-induced human T cells assessed as increase in IL2 production preincubated with PGE2 for 15 mins followed by compound administration for 60 mins and measured after 48 hrs of anti-human CD28 antibody by ELISA; settings: T-cell
[22] = Inhibition of immunosuppressive activity in PGE2-induced human T cells assessed as increase in cell proliferation preincubated with PGE2 for 15 mins followed by compound administration for 60 mins and measured after 72 hrs of anti-human CD28 antibody by flow cytometric analysis
[23] = Protein binding in human plasma assessed as unbound fraction at 5 uM incubated for 5 hrs by equilibrium dialysis based LC-MS analysis
[24] = Protein binding in cynomolgus monkey plasma assessed as unbound fraction at 5 uM incubated for 5 hrs by equilibrium dialysis based LC-MS analysis
[25] = Protein binding in Beagle dog plasma assessed as unbound fraction at 5 uM incubated for 5 hrs by equilibrium dialysis based LC-MS analysis
[26] = Protein binding in Sprague-Dawley rat plasma assessed as unbound fraction at 5 uM incubated for 5 hrs by equilibrium dialysis based LC-MS analysis
[27] = Protein binding in CD-1 mouse plasma assessed as unbound fraction at 5 uM incubated for 5 hrs by equilibrium dialysis based LC-MS analysis
[28] = Plasma protein binding in human at 5 uM incubated for 5 hrs by equilibrium dialysis based LC-MS analysis
[29] = Plasma protein binding in cynomolgus monkey at 5 uM incubated for 5 hrs by equilibrium dialysis based LC-MS analysis
[30] = Plasma protein binding in Beagle dog at 5 uM incubated for 5 hrs by equilibrium dialysis based LC-MS analysis
[31] = Plasma protein binding in Sprague-Dawley rat at 5 uM incubated for 5 hrs by equilibrium dialysis based LC-MS analysis
[32] = Plasma protein binding in CD-1 mouse at 5 uM incubated for 5 hrs by equilibrium dialysis based LC-MS analysis
[33] = system: CT26; assay: Antitumor activity against mouse CT26 cells implanted in female BALB/C mouse model assessed as tumor growth inhibition at 30 mg/kg, po administered via gavage once daily and measured after 14 days relative to control; settings: 336 h, read-out: TGI
[34] = system: CT26; assay: Antitumor activity against mouse CT26 cells implanted in female BALB/C mouse model assessed as tumor growth inhibition at 10 mg/kg, po administered via gavage once daily and measured after 14 days relative to control; settings: 336 h, read-out: TGI
[35] = Toxicity in female BALB/C mouse model implanted with mouse CT26 cells assessed as body weight gain at 10 mg/kg, po administered via gavage once daily and measured after 14 days; assay type: organism-based; settings: in vivo, 336 h, time 14 day
[36] = system: 4T1; assay: Antitumor activity against mouse 4T1 cells implanted in female BALB/C mouse model assessed as tumor growth inhibition at 30 mg/kg, po relative to control; settings: 4T1, po, read-out: TGI
[37] = in vitro; settings: human, hepatocytes
[38] = in vitro; settings: rhesus monkey, hepatocytes
[39] = in vitro; settings: rat, hepatocytes
[40] = in vitro; settings: dog, hepatocytes
[41] = in vitro; settings: dog, hepatocytes; remark: listed apart in the source
[42] = in vitro; settings: mouse, hepatocytes

Which results are given for `C[C@H]1CCCN(Cc2cc3c(C4CC4)cn(-c4cccc([C@]5(c6nncn6C)C[C@@H](C)C5)c4)c(=O)c3[nH]2)C1`?
inhibition in vivo at 50 mg/kg [1]: 51%; %AUCextra [2]: 1.18%; %AUCextra [3]: 14.2%; half-life at 24 h [4]: 40.8 min; C0 at 24 h [5]: 0.395 µg/mL; AUC(0-t) at 24 h [6]: 0.202 µg·h/mL; AUC(0-inf) at 24 h [7]: 0.205 µg·h/mL; MRT inf at 24 h [8]: 39.6 min; Vd at 24 h [9]: 4.82 L/kg; Vd at 24 h [10]: 3.19 L/kg; clearance at 24 h [11]: 4.93 L/h/kg; half-life at 24 h [12]: 140 min; Tmax at 24 h [13]: 120 min; Cmax at 24 h [14]: 0.0779 µg/mL; AUC(0-t) at 24 h [15]: 0.243 µg·h/mL; AUC(0-inf) at 24 h [16]: 0.293 µg·h/mL; MRT inf at 24 h [17]: 253 min; bioavailability at 24 h [18]: 27.2%

What does the source list for `C[C@H]1CCCN(Cc2cc3c(C(F)(F)F)cn(-c4cccc([C@]5(c6nncn6C)C[C@@H](C)C5)c4)c(=O)c3[nH]2)C1`?
Activity [19]: Non-toxic; EC50 [20]: 0.17 µM; EC50 [21]: 0.0657 µM; EC50 [22]: 0.0014 µM; fraction unbound at 5 h, 5 µM [23]: 0.0379; fraction unbound at 5 h, 5 µM [24]: 0.0179; fraction unbound at 5 h, 5 µM [25]: 0.0394; fraction unbound at 5 h, 5 µM [26]: 0.0419; fraction unbound at 5 h, 5 µM [27]: 0.0217; fraction unbound at 5 h, 5 µM [28]: 0.0379; fraction unbound at 5 h, 5 µM [29]: 0.0179; fraction unbound at 5 h, 5 µM [30]: 0.0394; fraction unbound at 5 h, 5 µM [31]: 0.0419; fraction unbound at 5 h, 5 µM [32]: 0.0217; inhibition in vivo at 30 mg/kg [33]: 56.1%; inhibition in vivo at 10 mg/kg [34]: 12.5%; Activity [35]: Toxic; inhibition in vivo at 30 mg/kg [36]: 31.3%; %AUCextra [2]: 1.2%; %AUCextra [3]: 0.94%; half-life at 24 h [4]: 55.7 min; C0 at 24 h [5]: 0.406 µg/mL; AUC(0-t) at 24 h [6]: 0.289 µg·h/mL; AUC(0-inf) at 24 h [7]: 0.292 µg·h/mL; MRT inf at 24 h [8]: 60.6 min; Vd at 24 h [9]: 4.66 L/kg; Vd at 24 h [10]: 2.91 L/kg; clearance at 24 h [11]: 3.47 L/h/kg; half-life at 24 h [12]: 69 min; Tmax at 24 h [13]: 21.6 min; Cmax at 24 h [14]: 0.48 µg/mL; AUC(0-t) at 24 h [15]: 0.789 µg·h/mL; AUC(0-inf) at 24 h [16]: 0.796 µg·h/mL; MRT inf at 24 h [17]: 89.4 min; bioavailability at 24 h [18]: 27.2%; half-life at 2 h, 2 µM [37]: 81.8 min; half-life at 2 h, 2 µM [38]: 12.2 min; half-life at 2 h, 2 µM [39]: 40.7 min; half-life at 2 h, 2 µM [40]: 24.1 min; CLint scaled at 2 h, 2 µM [41]: 2.36 L/h/kg; half-life at 2 h, 2 µM [42]: 14.3 min
